Measurements published in patent US20230286983A1 (4E Therapeutics, Inc., priority 2020, published 2023).
Where “and” joins values, the source holds several entries; their conditions need not be identical. Equal entries are not always repeated. Where two headings read alike, the source gives them in different places.

Columns and labels:
eIF4E phosphorylation = experiment: In vivo eIF4E phosphorylation in different tissues (Western blot), 4ET-01-021; set-up: species or system mice; details: PO 10 mg/kg
Text: However, 4ET-01-021 minimally-inhibited phosphorylation of eIF4E in the brain, as determined by Western blot analysis of brain tissue from the cortex.

[1] = Brain vs plasma concentration, 4ET-03-009 at 10 mg/kg; assay type: in vivo, mice; details: 10 mg/kg oral, 2 hours after dosing; for concentration at 2 hours: oral, 10 mg/kg
Description: In separate mice administered the same therapy, brain tissue was harvested 2 hours after dosing and brain concentration of the MNK inhibitor was measured by homogenizing brain tissue followed by LC-MS/MS analysis. Plasma concentration was measured as described above.

[2] = Liver microsome stability, rat; assay type: in vitro ADME; details: Rat liver microsomes (#)
[3] = Liver microsome stability, human; assay type: in vitro ADME; details: liver microsomes

Row | brain entry [1] | Tissue Homogenate Conc. n = 3 ([1]; Brain, individual) | Plasma Conc. n = 3 ([1]; Plasma, individual) | concentration at 2 hours ([1]; CD-1, mouse, brain homogenate, Brain, individual, read-out: Tissue Homogenate Conc. n = 3) | concentration at 2 hours ([1]; CD-1, mouse, brain homogenate, Brain, read-out: Tissue Homogenate Conc. Mean) | concentration at 2 hours ([1]; CD-1, mouse, brain, Brain, read-out: Mean Tissue) | Kp at 2 hours ([1]; CD-1, mouse, brain/plasma, Brain, read-out: Mean Tissue/Plasma Conc. Ratio) | concentration at 2 hours ([1]; CD-1, mouse, plasma, Plasma, individual, read-out: Plasma Conc. n = 3) | concentration at 2 hours ([1]; CD-1, mouse, plasma, Plasma, read-out: Plasma Conc. Mean) | microsomal CLint ([2]; read-out: CLint rodent) | half-life ([2]; read-out: Rodent liver microsomes t1/2) | microsomal CLint [3] | half-life ([3]; read-out: Human liver microsomes t1/2) | Compound | eIF4E phosphorylation in the brain (cortex) (eIF4E phosphorylation) | eIF4E phosphorylation in DRGs, sciatic nerve, and spleen (eIF4E phosphorylation; 2 hours or 4 hours post dose)
1 | – | – | – | – | – | – | – | – | – | – | – | – | – | CCC1=CC2(CCC1)NC(=O)c1c(C)cc(Nc3cc(N)ncn3)c(=O)n12 (stereo not drawn) [Compound 4ET-01-021, 6′-((6-Aminopyrimidin-4-yl)amino)-3-ethyl-8′-methyl-2′H-spiro[cyclohexane-1,3′-imidazo[1,5-a]pyridin]-2-ene-1′,5′-dione] | minimally-inhibited | significant inhibition of eIF4E phosphorylation
2 | enters the brain very poorly | 5.5 ng/mL and 7.28 ng/mL | 292 ng/mL and 337 ng/mL | 7.67 ng/mL | 6.82 ng/mL | 27.3 ng/g | 0.083 | 357 ng/mL | 329 ng/mL | 2.54 µL/min/mg | 9.08 h | 2.16 µL/min/mg | 10.7 h | Cc1cc(Nc2cc(NC(=O)C3CC3)ncn2)c(=O)n2c1C(=O)NC21CCOCC1 [Compound 4ET-03-009, N-(6-((8-Methyl-1,5-dioxo-1,2′,3′,5,5′,6′-hexahydro-2H-spiro[imidazo[1,5-a]pyridine-3,4′-pyran]-6-yl)amino)pyrimidin-4-yl)cyclopropanecarboxamide] | – | –
